This data set in a line: Solubility of metronidazole in water. The format is physicochemical. Conditions: water/propylene glycol mixtures said to give higher solubilities (values not given). The text has this: Without wishing to be bound by any particular theory, it is possible that the stabilizing effect according to the invention is at least partly due to the fact that a mixture of water and propylene glycol allows a very good solubilization of metronidazole, in particular when the water and the propylene glycol are present in the abovementioned advantageous ranges, whereas a lower solubilization is obtained when the propylene glycol is introduced after the dissolution of the metronidazole in water, even when the propylene glycol is post-introduced in large quantities as in the method of U.S. Pat. No. 4,837,378.

The text below walks through data of US20090215849A1, “High stability aqueous gels comprising metronidazole and methods for the preparation thereof” (GALDERMA S.A., priority 2005, published 2009).

With `Cc1ncc([N+](=O)[O-])n1CCO` [Metronidazole, 1-(2-hydroxyethyl)-2-methyl-5-nitroimidazole], the solubility in water was ~0.78%.
